# Assay results taken from patent US8697747B2, “Enhancing coagulation or reducing fibrinolysis” (THe UAB Research Foundation, priority 2009, dated 2014).
# Tests used:
# pooled normal plasma [1] = test: Thrombelastographic coagulation kinetics, Celite-activated normal plasma; type: biochemical, human; details: 100 μM, mean ± SD, n=8
# Experimental: Pooled normal plasma (George King Bio-Medical, Overland Park, Kans.) anticoagulated with sodium citrate was utilized for experimentation. […] Factor XIII (FXIII) deficient plasma anticoagulated with sodium citrate was also obtained from George King Bio-Medical (Overland Park, Kans.).
# Plasma Sample Composition. The final volume for all subsequently described plasma sample mixtures was 359.4 μL. […] (Motterlini et al., Expert Opin Investig Drugs, 14:1305-1318 (2005), which is incorporated by reference herein in its entirety).
# Clot Lifespan Model Analyses. Plasma sample mixtures were placed in a disposable cup in a computer-controlled THROMBELASTOGRAPH® hemostasis system (Model 5000, Haemoscope Corp., Niles, Ill.), with addition of CaCl2 as the last step to initiate clotting. Data were collected for 15 minutes, as normal plasma completes thrombus formation within this interval in this system (Dong et al., Eur J Pharmacol 590:99-104 (2008)).
# Statistical Analyses. Data are presented as mean±SD. All conditions described were represented with n=8 experiments, as n=6-8 typically provides statistical power>0.8 in similar analyses (Nielsen et al., Acta Anaesthesiol Scand 49:222-231 (2005) and Nielsen et al., Blood Coagul Fibrinolysis 17:75-81 (2006)). Analyses of the effects of CORM-2 and iCORM-2 on thrombelastographic variables were conducted using one way analysis of variance with the Holm-Sidak test used for post hoc comparisons. Graphical representation of the data was generated with commercially available software (Origin 7.5, OriginLab Corp., Northampton, Mass.). A P value of ≦0.05 was considered significant.
# pooled normal plasma [2] = test: Clot lifespan model (CLSM) thrombelastography with tPA, normal plasma; type: biochemical, human; details: 100 μM
# Experimental: Pooled normal plasma (George King Bio-Medical, Overland Park, Kans.) anticoagulated with sodium citrate was utilized for experimentation. […] Factor XIII (FXIII) deficient plasma anticoagulated with sodium citrate was also obtained from the same vendor.
# Plasma Sample Composition. The final volume for all subsequently described plasma sample mixtures was 359.4 μL. Sample composition consisted of 316 μL of plasma; 10 μL of tissue factor (0.1% final concentration in 0.9% NaCl; Diagnostica Stago, Asnieres, France), 3.6 μL of dimethyl sulfoxide (DMSO) or DMSO with CORM-2 (Sigma-Aldrich, St. Louis, Mo.) or DMSO with inactivated CORM-2 (iCORM-2), 10 μL of tissue-type plasminogen activator (tPA, 580 U/μg, Genentech, Inc., San Francisco, Calif.) diluted with 10 mM potassium phosphate buffer (pH 7.4) for a final activity of 100 IU/mL, and 20 μL of 200 mM CaCl2. […] This concentration of CORM-2 was chosen because the concentration of CO released would be expected to be in the mid to lower ranges used in previously reported ex vivo, in vitro, and cell-based experiments (Motterlini et al. 2002; Megias et al. 2007; Chlopicki et al. 2006; Dong et al. 2008). […] (Motterlini et al. 2005). While CORM-2 decays slowly in DMSO, DMSO was added to the dry compound just prior to placement into the plasma mixture. The specific series of experiments are subsequently presented.
# Concentration-Response Relationships of CORM-2 and iCORM-2 with Clot Lifespan Model (CLSM) Parameters. Normal plasma was exposed to 0, 25, 50, 100 or 200 μM CORM-2 (n=4 per concentration. Additional plasma samples were exposed to 25, 50 or 100 μM iCORM-2 (n=4 per concentration). Samples underwent CLSM analyses as subsequently described.
# Comparison of the Effects of CORM-2 and iCORM-2 on CLSM Parameters in Normal Plasma. Given the results of the aforementioned experiments, additional samples of normal plasma were exposed to 0 or 100 μM of CORM-2 or iCORM-2 (n=4 per additional sample condition, n=8 per condition for final analyses). Samples underwent CLSM analyses as subsequently described.
# Clot Lifespan Model Analyses. As described in Example 1, plasma sample mixtures were placed in a disposable cup in a computer-controlled THROMBELASTOGRAPH® hemostasis system (Model 5000, Haemoscope Corp., Niles, Ill.), with addition of CaCl2 as the last step to initiate clotting. Data were collected until clot lysis time occurred. […] As this model involves complete fibrinolysis, TTG is equivalent to ACL, so ACL was not presented as it provides no additional information.
# Statistical Analyses. Data are presented as median (1st, 3rd quartiles). […] Nonlinear and linear analyses and curve fitting of the various CORM-2 concentrations effects on CLSM variables were performed with commercially available software (SigmaPlot 11.0, Systat Software, Inc., San Jose, Calif.). Analyses of the effects of CORM-2 and iCORM-2 on CLSM variables in normal plasma were conducted with Kruskal-Wallis one way analysis of variance on ranks, whereas Mann-Whitney rank sum tests were used to assess the effects of CORM-2 on CLSM variables in the various immunodepleted/congenitally deficient plasma types (SigmaStat 3.1, Systat Software, Inc., San Jose, Calif.). Graphical representation of the data was generated with commercially available software (SigmaPlot 11.0, Systat Software, Inc., San Jose, Calif.; CorelDRAW 12.0, Corel Corporation, Ottawa, Ontario, Canada; Origin 7.5, OriginLab Corp., Northampton, Mass.). A P value of <0.05 was considered significant.
smiles,measurement,setting,value
"[C-]#[O+].[C-]#[O+].[C-]#[O+].[C-]#[O+].[C-]#[O+].[C-]#[O+].[Cl][Ru][Cl].[Cl][Ru][Cl] [CORM-2, tricarbonyldichlororuthenium (II) dimer]",MRTG (maximum rate of thrombus generation),pooled normal plasma [1],13.7 ± 1.3 dynes/cm^2/sec
same,TMRTG (time to maximum rate of thrombus generation),pooled normal plasma [1],188 ± 18 s
same,TTG (total thrombus generation),pooled normal plasma [1],248 ± 17 dynes/cm^2
same,delay of the onset of fibrinolysis vs samples not exposed,pooled normal plasma [2]; tPA,258%
same,enhancement of strength of the clot vs samples not exposed,pooled normal plasma [2]; tPA,113%
same,enhancement of the velocity of growth vs samples not exposed,pooled normal plasma [2]; tPA,120%
same,increase in CGT vs 0 μM CORM-2,pooled normal plasma [2]; tPA,126%
same,increase in CLS vs 0 μM CORM-2,pooled normal plasma [2]; tPA,145%
same,increase in CLT vs 0 μM CORM-2,pooled normal plasma [2]; tPA,143%
same,CGT (clot growth time),"pooled normal plasma [2]; tPA 100 IU/mL, median, n=8",508 s
same,CLS (clot lifespan),"pooled normal plasma [2]; tPA 100 IU/mL, median, n=8",2325 s
same,CLT (clot lysis time),"pooled normal plasma [2]; tPA 100 IU/mL, median, n=8",1768 s
same,MRL (maximum rate of lysis),"pooled normal plasma [2]; tPA 100 IU/mL, median, n=8",−1.9 -dynes/cm^2/sec
same,MRTG (maximum rate of thrombus generation),"pooled normal plasma [2]; tPA 100 IU/mL, median, n=8",9.7 dynes/cm^2/sec
same,TMRL (time to maximum rate of lysis),"pooled normal plasma [2]; tPA 100 IU/mL, median, n=8",1218 s
same,TMRTG (time to maximum rate of thrombus generation),"pooled normal plasma [2]; tPA 100 IU/mL, median, n=8",155 s
same,TTG (total thrombus generation),"pooled normal plasma [2]; tPA 100 IU/mL, median, n=8",281 dynes/cm^2
